The values that follow come from patent US10611778B2, “Fused bicyclic inhibitors of menin-MLL interaction” (Janssen Pharmaceutica NV, priority 2016, dated 2020).

Each structure is given as a SMILES string. pIC50: −log10 of the molar value.

Assay [1] concerns the target T1, Menin/MLL (terbium chelate-labeled menin, FITC-MBM1 peptide) (Homo sapiens, UniProt O00255, T541A).
T1 construct: Menin (a.a. 1-610-6×his tag) was labeled with terbium cryptate as follows
T1 sequence (O00255 with tags, fused parts or gaps T541A): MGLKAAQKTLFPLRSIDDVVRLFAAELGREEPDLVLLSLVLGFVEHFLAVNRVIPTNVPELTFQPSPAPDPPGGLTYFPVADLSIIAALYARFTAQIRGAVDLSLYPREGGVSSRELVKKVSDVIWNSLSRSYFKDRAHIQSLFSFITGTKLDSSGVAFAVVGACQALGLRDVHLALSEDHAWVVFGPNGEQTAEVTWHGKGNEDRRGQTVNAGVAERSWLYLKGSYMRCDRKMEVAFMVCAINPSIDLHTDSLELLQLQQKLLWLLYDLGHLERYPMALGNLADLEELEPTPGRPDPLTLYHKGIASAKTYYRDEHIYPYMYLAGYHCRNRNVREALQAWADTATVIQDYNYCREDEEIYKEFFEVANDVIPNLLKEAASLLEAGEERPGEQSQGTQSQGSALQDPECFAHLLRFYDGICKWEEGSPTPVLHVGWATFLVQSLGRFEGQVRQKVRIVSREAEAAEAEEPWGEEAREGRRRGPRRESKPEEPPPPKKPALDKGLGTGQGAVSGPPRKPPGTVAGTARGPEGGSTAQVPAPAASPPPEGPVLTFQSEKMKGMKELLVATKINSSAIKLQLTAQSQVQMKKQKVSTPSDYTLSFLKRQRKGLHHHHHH
Nature of the assay: Menin/MLL homogenous time-resolved fluorescence (HTRF) assay. In kind it is binding. As to conditions: averaged values over all measurements; read-out: Menin HTRF assay (IC50). The method, then: 3) Menin/MLL Homogenous Time-Resolved Fluorescence (HTRF) Assay
To an untreated, white 384-well microtiter plate was added 40 nL 200× test compound in DMSO and 4 μL 2× terbium chelate-labeled menin (vide infra for preparation) in assay buffer (40 mM Tris-HCl, pH 7.5, 50 mM NaCl, 1 mM DTT and 0.05% Pluronic F-127). After incubation of test compound and terbium chelate-labeled menin for 5 min at ambient temperature, 4 μL 2×FITC-MBM1 peptide (FITC-β-alanine-SARWRFPARPGT-NH2) in assay buffer was added, the microtiter plate centrifuged at 1000 rpm for 1 min and the assay mixtures incubated for 15 min at ambient temperature. The relative amount of menin⋅FITC-MBM1 complex present in an assay mixture is determined by measuring the homogenous time-resolved fluorescence (HTRF) of the terbium/FITC donor/acceptor fluorophore pair using a BMG Pherastar plate reader (ex. 337 nm/terbium em. 490 nm/FITC em. 520 nm) at ambient temperature. The degree of fluorescence resonance energy transfer (the HTRF value) is expressed as the ratio of the fluorescence emission intensities of the FITC and terbium fluorophores (F^em 520 nm/F^em 490 nm). The final concentrations of reagents in the binding assay are 100 pM terbium chelate-labeled menin, 75 nM FITC-MBM1 peptide and 0.5% DMSO in assay buffer. Dose-response titrations of test compounds are conducted using an 11 point, three-fold serial dilution scheme, starting at 31 μM.
Compound potencies were determined by first calculating % inhibition at each compound concentration according to equation 1: % inhibition=((HC−LC)−(HTRF^compound−LC))/(HC−LC))*100 (Eqn 1)
Where LC and HC are the HTRF values of the assay in the presence or absence of a saturating concentration of a compound that competes with FITC-MBM1 for binding to menin, and HTRF^compound is the measured HTRF value in the presence of the test compound. HC and LC HTRF values represent an average of at least 16 replicates per plate.
Where Bottom and Top are the lower and upper asymptotes of the dose-response curve, respectively, IC50 is the concentration of compound that yields 50% inhibition of signal and h is the Hill coefficient.
Preparation of Terbium cryptate labeling of Menin: Menin (a.a. 1-610-6×his tag) was labeled with terbium cryptate as follows. 2 mg of Menin was buffer exchanged into 1× phosphate buffered saline. 16 uM Menin was incubated with 4-fold molar excess NHS-terbium cryptate (Cisbio Bioassays, Bedford, Mass.) for 2 hours at room temperature. The labeled protein was purified away from free label by running the reaction over a Superdex 200 Increase 10/300 GL column at 0.75 ml/min. Peak fractions were collected, aliquoted and frozen at −80° C.

Assay [2] relates to MV-4-11. Put plainly: Proliferation assay (spheroid assay) MV-4-11. Format: cell-based, human. As to conditions: Homo sapiens, MV4-11, MV-4-11; averaged values over all measurements; read-out: Spheroid assay MV-4-11 (IC50). The method, then:
The anti-proliferative effect of menin/MLL protein/protein interaction inhibitor test compounds was assessed in human leukemia cell lines. The cell lines MV-4-11 and MOLM14 harbor MLL translocations and express the MLL fusion proteins MLL-AF4 and MLL-AF9, respectively, as well as the wildtype protein from the second allele. […] K562 and KG1 were used as a control cell lines containing two MLL wildtype alleles in order to exclude compounds that display general cytotoxic effects.
MV-4-11 and MOLM14 were cultured in RPMI-1640 (Sigma Aldrich) supplemented with 10% fetal bovine serum (HyClone), 2 mM L-glutamine (Sigma Aldrich) and 50 μg/ml gentamycin (Gibco). K562 were propagated in RPMI-1640 (Sigma Aldrich) supplemented with 20% fetal bovine serum (HyClone), 2 mM L-glutamine (Sigma Aldrich) and 50 μg/ml gentamycin (Gibco). KG1 were cultured in Iscove's MDM (Gibco) supplemented with 20% fetal bovine serum (HyClone), 2 mM L-glutamine (Sigma Aldrich) and 50 μg/ml gentamycin (Gibco).
In order to assess the anti-proliferative effects, 1,500 MV-4-11, 300 MOLM14, 750 K562 or 1,300 KG1 cells were seeded in 200 μl media per well in 96-well round bottom, ultra-low attachment plates (Costar, catalogue number 7007). Cell seeding numbers were chosen based on growth curves to ensure linear growth throughout the experiment. Test compounds were added at different concentrations and the DMSO content was normalized to 0.3%. Cells were incubated for 8 d at 37° C. and 5% CO2. Spheroid like growth was monitored in real-time by live-cell imaging (IncuCyteZOOM, Essenbio, 4× objective) acquiring one image every four hours for 8 d. Confluence (%) as a measure of spheroid size was determined using an integrated analysis tool.
In order to determine the cumulative effect of the test compounds over time, the area under the curve (AUC) in a plot of confluence against time was calculated. Confluence at the beginning of the experiment (t=0) was used as baseline for the AUC calculation.
Absolute IC50 values were calculated according to the following procedure: % Control=(AUC sample/AUC control)*100
AUC control=mean AUC of control values (cells without compound/DMSO as vehicle control)
A non-linear curve fit was applied using the least squares (ordinary) fit method to the plot of % control versus compound concentration. Based on this, the absolute IC50 value (half maximal inhibitory concentration of the test compound causing an anti-proliferative effect of 50% relative to the vehicle control) was calculated.

`Fc1cncc(CN2CC[C@@H]3CN(c4ncnc5sc(CC(F)(F)F)cc45)C[C@@H]3C2)c1` (single isomer, unassigned) [Compound 38]: the negative logarithm of the IC50 (pIC50) is 6.68 in assay [1] and 5.64 in assay [2].
`FC(F)(F)Cc1cc2c(N3C[C@H]4CCN(Cc5cncc(Cl)c5)C[C@H]4C3)ncnc2s1` (single isomer, unassigned) [Compound 43]: the pIC50 in assay [1] is 7.01; in assay [2] it was 5.89.
On to `COc1cncc(CN2CC[C@@H]3CN(c4ncnc5sc(CC(F)(F)F)cc45)C[C@@H]3C2)c1` (single isomer, unassigned) [Compound 46], for which the figures for the negative logarithm of the IC50 (pIC50) in assay [1] and in assay [2] were 6.98 and 5.82, respectively.
For the molecule `CC(CN1CC[C@@H]2CN(c3ncnc4sc(CC(F)(F)F)cc34)C[C@@H]2C1)C(F)(F)F` (single isomer, unassigned) [Compound 47], the pIC50 in assay [1] was 7.26; in assay [2], 5.64.
As to `CC(CN1CC[C@@H]2CN(c3ncnc4sc(CC(F)(F)F)cc34)C[C@@H]2C1)c1ccccc1` (single isomer, unassigned) [Compound 49], the pIC50 in assay [1] is 7.36; in assay [2], 5.72.
With `FC(F)(F)Cc1cc2c(N3C[C@H]4CCN(Cc5cnoc5)C[C@H]4C3)ncnc2s1` (single isomer, unassigned) [Compound 51], the results for the negative-log IC50 (pIC50) in assay [1] and in assay [2] were 7.21 and 5.64, respectively.
Regarding `FC(F)(F)Cc1cc2c(N3C[C@H]4CCN(Cc5cnsc5)C[C@H]4C3)ncnc2s1` (single isomer, unassigned) [Compound 52], the negative logarithm of the IC50 (pIC50) was 7.39 in assay [1] and 6.07 in assay [2].
Consider `Cn1cncc1CN1CC[C@@H]2CN(c3ncnc4sc(CC(F)(F)F)cc34)C[C@@H]2C1` (single isomer, unassigned) [Compound 54], for which the pIC50 in assay [1] was 7.01; in assay [2], 5.68.
As for `FC(F)(F)Cc1cc2c(N3C[C@H]4CCN(Cc5ccnnc5)C[C@H]4C3)ncnc2s1` (single isomer, unassigned) [Compound 55], the pIC50 in assay [1] is 7.12; in assay [2], 5.48.
As for `FC(F)(F)Cc1cc2c(N3C[C@H]4CCN(Cc5cccnc5)C[C@H]4C3)ncnc2s1` (single isomer, unassigned) [Compound 56], the pIC50 in assay [1] was 7.39; in assay [2], 5.85.
Consider `FC(F)(F)Cc1cc2c(N3C[C@H]4CCN(CCC5CCOCC5)C[C@H]4C3)ncnc2s1` (single isomer, unassigned) [Compound 59], for which the negative logarithm of the IC50 (pIC50) was 6.67 in assay [1] and 5.74 in assay [2].
Take `COc1ccncc1CN1CC[C@@H]2CN(c3ncnc4sc(CC(F)(F)F)cc34)C[C@@H]2C1` (single isomer, unassigned) [Compound 61]: the figures for the pIC50 in assay [1] and in assay [2] were 6.84 and 5.77, respectively.
For `FC(F)(F)Cc1cc2c(N3C[C@H]4CCN(Cc5ccc(Cl)nc5Cl)C[C@H]4C3)ncnc2s1` (single isomer, unassigned) [Compound 62] the same measures were 7.44 and 5.66.
Taken in the same sequence, the figures for `FC(F)(F)Cc1cc2c(N3C[C@H]4CCN(Cc5ccnc(Cl)c5)C[C@H]4C3)ncnc2s1` (single isomer, unassigned) [Compound 65] were 7.25 and 5.92.
As for `Cn1ccc(CN2CC[C@@H]3CN(c4ncnc5sc(CC(F)(F)F)cc45)C[C@@H]3C2)cc1=O` (single isomer, unassigned) [Compound 68], the pIC50 in assay [1] was 6.58; in assay [2], 5.54.
As to `OCCn1cc(CN2CC[C@@H]3CN(c4ncnc5sc(CC(F)(F)F)cc45)C[C@@H]3C2)cn1` (single isomer, unassigned) [Compound 75], the pIC50 in assay [1] was 7.55; in assay [2], 6.00.
On to `CC(=O)N1CCC(CN2CC[C@@H]3CN(c4ncnc5sc(CC(F)(F)F)cc45)C[C@@H]3C2)CC1` (single isomer, unassigned) [Compound 76], for which the pIC50 in assay [1] is 6.98; in assay [2] it was 5.54.
Regarding `FC(F)(F)Cc1cc2c(N3CC[C@@H]4[C@@H](CCN4Cc4ccc[nH]4)C3)ncnc2s1` (single isomer, unassigned) [Compound 85], the negative-log IC50 (pIC50) in assay [1] is 6.99; in assay [2], 5.51.
With `OC1(CN2CC[C@@H]3CN(c4ncnc5sc(CC(F)(F)F)cc45)C[C@@H]3C2)CCOCC1` (single isomer, unassigned) [Compound 86], the pIC50 was 6.70 in assay [1] and 5.18 in assay [2].
For `FC(F)(F)Cc1cc2c(N3C[C@H]4CCN(Cc5ccc(C6CC6)nc5)C[C@H]4C3)ncnc2s1` (single isomer, unassigned) [Compound 89], the pIC50 is 7.62 in assay [1] and 6.62 in assay [2].
Taken in the same sequence, the figures for `O=C(C1CCOCC1)N1CCC(CN2CC[C@@H]3CN(c4ncnc5sc(CC(F)(F)F)cc45)C[C@@H]3C2)CC1` (single isomer, unassigned) [Compound 91] were 7.52 and 5.92.
With `O=C(C1CCCOC1)N1CCC(CN2CC[C@@H]3CN(c4ncnc5sc(CC(F)(F)F)cc45)C[C@@H]3C2)CC1` (single isomer, unassigned) [Compound 92], the figures for the negative logarithm of the IC50 (pIC50) in assay [1] and in assay [2] were 7.85 and 6.35, respectively.
With `CC(C)(C)CC(=O)N1CCC(CN2CC[C@@H]3CN(c4ncnc5sc(CC(F)(F)F)cc45)C[C@@H]3C2)CC1` (single isomer, unassigned) [Compound 93], the negative logarithm of the IC50 (pIC50) was 7.70 in assay [1] and 6.24 in assay [2].

By pIC50 is commonly meant −log10 of the IC50, conventionally taken in molar units.
